# Reference: patent US20030232820A1, “Method for synthesizing oxazinones” (priority 2001, published 2003)
# Tests used:
# [1] = tested on: tuberculosis bacilli; conditions: in words, prior art; cited from earlier work
# [2] = tested on: glutamate-aspartate transaminase; conditions: in words, prior art; cited from earlier work
# [3] = tested on: Micrococcus luteus; assay: Agar plate filter disc test for antibacterial activity; conditions: for Zone size: agar plate seeded with Micrococcus luteus, 12 hours at 30° C.; for antibacterial activity against Micrococcus luteus: agar plates, in words
smiles,measurement,setting,value
"NC1CCONC1=O (racemic) [DL-cyclocanaline, 4-amino-tetrahydro-1,2-oxazin-3-one]",activity against tuberculosis bacilli,[1],exhibits activity
same,inhibition of glutamate-aspartate transaminase,[2],known to inhibit
same,Zone size,[3]; Weight 400 micrograms on disc,48 mm
same,Zone size,[3]; Weight 600 micrograms on disc,58 mm
same,antibacterial activity against Micrococcus luteus,[3],exhibited activity
"C[C@H](C(=O)O)N1OCCCC1=O [Compound R, 2R-(3-Oxo-[1,2]Oxazinan-2-yl)-Propionic Acid]",Zone size,[3]; Weight 400 micrograms on disc,23 mm
same,antibacterial activity against Micrococcus luteus,[3],exhibited activity
"CC(C(=O)O)N1OCCC(NC(=O)Cc2ccccc2)C1=O (stereo not drawn) [UA, 2-(α-Carboxylethyl)-4-phenylacetylamino-1,2-oxazinan-3-one]",melting point,,189 to 190 °C
CC1=C(C(=O)O)N2C(=O)[C@@H](NC(=O)Cc3ccccc3)[C@H]2SC1 [desacetoxycephalosporin G],Zone size,[3]; Weight 10 micrograms on disc,39 mm
